One experiment deals with LasB (Pseudomonas aeruginosa (strain ATCC 15692 / DSM 22644 / CIP 104116 / JCM 14847 / LMG 12228 / 1C / PRS 101 / PAO1), UniProt P14756). Put plainly: In vitro LasB activity assay (fluorogenic substrate). The experiment is classed as biochemical. The note with it: LasB 0.3 nM, substrate 150 μM, mean ± SD. As to the method: The LasB activity assay was performed as described previously (Nishino N, Powers J C. Pseudomonas aeruginosa elastase. Development of a new substrate, inhibitors, and an affinity ligand. J Biol Chem. 1980 Apr. 25; 255(8):3482-6) using the fluorogenic substrate 2-Aminobenzoyl-L-Alanyl-Glycyl-L-Leucyl-L-Alanyl-para-Nitro-Benzyl-Amide, purchased from Peptides International (Louisville, KY, USA) and vivitide, LLC (Gardner, MA, USA).
Chain of LasB (P14756 198-498): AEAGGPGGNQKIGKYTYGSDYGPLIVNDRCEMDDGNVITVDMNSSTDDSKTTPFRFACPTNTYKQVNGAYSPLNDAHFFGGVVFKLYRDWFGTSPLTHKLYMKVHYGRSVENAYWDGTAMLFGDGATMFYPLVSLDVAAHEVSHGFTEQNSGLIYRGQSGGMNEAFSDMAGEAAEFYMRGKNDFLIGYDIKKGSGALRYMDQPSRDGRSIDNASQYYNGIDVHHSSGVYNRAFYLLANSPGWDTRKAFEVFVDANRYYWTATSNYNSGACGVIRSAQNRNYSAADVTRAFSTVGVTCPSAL
Fluorescence intensity was measured for 60 min at 37° C. in black 384-well microtiter plates (Greiner BioOne, Kremsmünster, Austria) using a CLARIOstar microplate reader (BMG Labtech, Ortenberg, Germany) with an excitation wavelength of […] and an emission wavelength of 415±20 nm. The assay was performed in a final volume of 50 μL of assay buffer (50 mM Tris, pH 7.2, 2.5 mM CaCl2), 0.075% Pluronic F-127, 5% DMSO) containing LasB at a final concentration of […] 0.3 nM and the substrate at 150 μM. Before substrate addition, compounds were preincubated with the enzyme at 37° C. for 15 min. Experiments were performed in duplicates and repeated for at least two times. Blank controls without enzyme were performed. After blank subtraction, the slope of samples containing inhibitors (v) was divided by the slope of a simultaneously started uninhibited enzymatic reaction (v0). IC50 values were determined with nonlinear regression using GraphPad Prism 5 (Graph Pad Software, San Diego, CA, USA) and are given as mean values ±standard deviation (SD). The slope factor was constrained to 1.

The test system of experiment [1] is P. aeruginosa PAO1 (strain DSM22644). Briefly: G. mellonella larvae survival after PAO1 infection. The experiment is classed as in vivo. The note with it: for Final survival percentage of larvae: 3 CFU/Larva, 24 h. As to the method: Bacteria were grown overnight, diluted to OD600 of 0.025 in 10 ml medium, and grown for approx. 2 hours at 37° C. inside a shaker incubator until the OD600 of 1.8-2 is reached. The culture was then serially diluted in sterile PBS (pH=7.2). Bacterial densities of 3000, 300, 30, and 3 CFU/Larva were selected for injection into groups of 15 larvae. A total volume of 5 μl was injected into each larva via the hindmost left proleg by using a syringe pump and Sterican® needles (0.30×12 mm, 30G×½). In addition, control group without injection for the quality of the larvae and a PBS control to monitor the effect of the injection were included in the experiment. All test groups and control groups were incubated at 37° C. in the dark and monitored every 2 hours from 17 hours post-infection.
In vivo evaluation of compounds 162 and 169. Bacteria were cultured and prepared according to the previous section. Final concentrations of 50 μM, 25 μM, and 12.5 μM in combination with 3 CFU/Larva were injected into groups of 15 larvae. In addition to no injection and PBS controls, one group was infected with 3 CFU/Larva and considered the negative control. All test groups and control groups were incubated at 37° C. in the dark and monitored every 2 hours from 17 hours post-infection.

The molecule `COc1ccc(S(=O)(=O)NCc2cn(Cc3ccc(NC(=O)C(CC(C)C)C(=O)NO)cc3)nn2)cc1` (stereo not drawn) [Compound 162, 2-(Hydroxycarbamoyl)-N-[4-[[4-[[(4-methoxyphenyl)sulfonylamino]methyl]triazol-1-yl]methyl]phenyl]-4-methyl-pentanamide] had an IC50 at LasB of 1.9 ± 0.1 nM. Besides, the “Final survival percentage of larvae” value in experiment [1] (12.5 μM) was determined as 58%; in experiment [1] (25 μM) it was 64%; in experiment [1] (50 μM) it was 84%. Besides, the “Improvement in survival of larvae compared to negative control” value in experiment [1] (50 μM, vs 3 CFU/Larva without treatment) came out at 40%. In the case of `O=C(NO)C(Cc1ccccc1)C(=O)Nc1ccc(Cn2cc(CNS(=O)(=O)c3ccc(I)cc3)nn2)cc1` (stereo not drawn) [Compound 179, 2-Benzyl-3-(hydroxyamino)-N-[4-[[4-[[(4-iodophenyl)sulfonylamino]methyl]triazol-1-yl]methyl]phenyl]-3-oxo-propanamide], at LasB, 1 ± 0.6 nM corresponded to half-maximal inhibition (IC50). `O=C(NO)C(CC1CC1)C(=O)Nc1ccc(Cn2cc(CNS(=O)(=O)c3ccc(I)cc3)nn2)cc1` (stereo not drawn) [Compound 183, 2-(Cyclopropylmethyl)-3-(hydroxyamino)-N-[4-[[4-[[(4-iodophenyl)sulfonylamino]methyl]triazol-1-yl]methyl]phenyl]-3-oxo-propanamide] showed an IC50 against LasB of 9.9 ± 0.3 nM.

At LasB, `CC(C)CC(C(=O)NO)C(=O)Nc1ccc(Cn2nncc2CNC(=O)OC(C)(C)C)cc1` (stereo not drawn) [Compound 185, tert-butyl N-[[3-[[4-[[2-(hydroxycarbamoyl)-4-methyl-pentanoyl]amino]phenyl]methyl]triazol-4-yl]methyl]carbamate] displayed an IC50 of 6.5 ± 0.2 nM. At LasB, `CC(C)CC(C(=O)NO)C(=O)Nc1ccc(Cn2nncc2CNS(=O)(=O)c2ccc(I)cc2)cc1` (stereo not drawn) [Compound 190, 2-(Hydroxycarbamoyl)-N-[4-[[5-[[(4-iodophenyl)sulfonylamino]methyl]triazol-1-yl]methyl]phenyl]-4-methyl-pentanamide] showed an IC50 of 7.8 ± 0.1 nM. On the same count and under the same terms, for `CC(C)CC(C(=O)NO)C(=O)Nc1ccc(Cn2nncc2CNS(=O)(=O)c2ccc(F)cc2)cc1` (stereo not drawn) [Compound 191, N-[4-[[5-[[(4-Fluorophenyl)sulfonylamino]methyl]triazol-1-yl]methyl]phenyl]-2-(hydroxycarbamoyl)-4-methyl-pentanamide] the value was 7.9 ± 0.1 nM; for `CC(C)CC(C(=O)NO)C(=O)Nc1ccc(Cn2nncc2CNS(=O)(=O)CC(C)C)cc1` (stereo not drawn) [Compound 192, 2-(Hydroxycarbamoyl)-N-[4-[[5-[(isobutylsulfonylamino)methyl]triazol-1-yl]methyl]phenyl]-4-methyl-pentanamide], 6.8 ± 0.1 nM; for `CC(=O)c1ccc(S(=O)(=O)NCc2cn(Cc3ccc(NC(=O)C(CC(C)C)C(=O)NO)cc3)nn2)cc1` (stereo not drawn) [Compound 203, N-[4-[[4-[[(4-acetylphenyl)sulfonylamino]methyl]triazol-1-yl]methyl]phenyl]-2-(hydroxycarbamoyl)-4-methyl-pentanamide], 7.9 ± 0.2 nM. As for `COC(=O)c1ccc(S(=O)(=O)NCc2cn(Cc3ccc(NC(=O)C(CC(C)C)C(=O)NO)cc3)nn2)cc1` (stereo not drawn) [Compound 204, methyl 4-[[1-[[4-[[2-(hydroxycarbamoyl)-4-methyl-pentanoyl]amino]phenyl]methyl]triazol-4-yl]methylsulfamoyl]benzoate], on LasB, the IC50 was determined as 13 ± 0.4 nM. In turn, `COCCOc1ccc(S(=O)(=O)NCc2cn(Cc3ccc(NC(=O)C(CC(C)C)C(=O)NO)cc3)nn2)cc1` (stereo not drawn) [Compound 205, 2-(hydroxycarbamoyl)-N-[4-[[4-[[[4-(2-methoxyethoxy)phenyl]sulfonylamino]methyl]triazol-1-yl]methyl]phenyl]-4-methyl-pentanamide] gave an IC50 against LasB of 29.5 ± 0.7 nM. On LasB, `CC(C)CC(C(=O)NO)C(=O)Nc1ccc(Cn2cc(CNS(=O)(=O)c3ccc(OC(C)C)cc3)nn2)cc1` (stereo not drawn) [Compound 206, 2-(hydroxycarbamoyl)-N-[4-[[4-[[(4-isopropoxyphenyl)sulfonylamino]methyl]triazol-1-yl]methyl]phenyl]-4-methyl-pentanamide] displayed an IC50 of 7.8 ± 0.3 nM. Still for that read-out and setting: for `CC(C)CC(C(=O)NO)C(=O)Nc1ccc(Cn2cc(CNS(=O)(=O)c3ccc(C(C)C)cc3)nn2)cc1` (stereo not drawn) [Compound 207, 2-(hydroxycarbamoyl)-N-[4-[[4-[[(4-isopropylphenyl)sulfonylamino]methyl]triazol-1-yl]methyl]phenyl]-4-methyl-pentanamide] the value was 3.1 ± 0.1 nM; for `CC(C)CC(C(=O)NO)C(=O)Nc1ccc(Cn2cc(CNS(=O)(=O)c3ccc(NC(=O)OC(C)(C)C)cc3)nn2)cc1` (stereo not drawn) [Compound 208, tert-butyl N-[4-[[1-[[4-[[2-(hydroxycarbamoyl)-4-methyl-pentanoyl]amino]phenyl]methyl]triazol-4-yl]methylsulfamoyl]phenyl]carbamate], 4.2 ± 0.2 nM; for `CC(C)CC(C(=O)NO)C(=O)Nc1ccc(Cn2cc(CNS(=O)(=O)c3ccc(N)cc3)nn2)cc1` (stereo not drawn) [Compound 210, N-[4-[[4-[[(4-aminophenyl)sulfonylamino]methyl]triazol-1-yl]methyl]phenyl]-2-(hydroxycarbamoyl)-4-methyl-pentanamide], 7.7 ± 0.2 nM. As for `CC(C)CCC(C(=O)NO)C(=O)Nc1ccc(Cn2cc(CNS(=O)(=O)c3ccc(I)cc3)nn2)cc1` (stereo not drawn) [Compound 215, 2-(hydroxycarbamoyl)-N-[4-[[4-[[(4-iodophenyl)sulfonylamino]methyl]triazol-1-yl]methyl]phenyl]-5-methyl-hexanamide], the midpoint of inhibition against LasB, the IC50, lay at 48.5 ± 1.4 nM. The same measure, in the same setting: for `CC(C(=O)NO)C(=O)Nc1ccc(Cn2cc(CNS(=O)(=O)c3ccc(I)cc3)nn2)cc1` (stereo not drawn) [Compound 217, 3-(hydroxyamino)-N-[4-[[4-[[(4-iodophenyl)sulfonylamino]methyl]triazol-1-yl]methyl]phenyl]-2-methyl-3-oxo-propanamide] the value was 278 ± 9.7 nM; for `CC(C)CC(C(=O)NO)C(=O)Nc1ccc(Cn2cc(CNS(=O)(=O)CC34CCC(CC3=O)C4(C)C)nn2)cc1` (stereo not drawn) [Hit L2, N-[4-[[4-[[(7,7-Dimethyl-2-oxo-norbornan-1-yl)methylsulfonylamino]methyl]triazol-1-yl]methyl]phenyl]-2-(hydroxycarbamoyl)-4-methyl-pentanamide], 5.3 ± 0.1 nM; for `CC(C)CC(C(=O)NO)C(=O)Nc1ccc(Cn2cc(CNS(=O)(=O)c3ccc(-c4ccccc4)cc3)nn2)cc1` (stereo not drawn) [Hit L3, 2-(Hydroxycarbamoyl)-4-methyl-N-[4-[[4-[[(4-phenylphenyl)sulfonylamino]methyl]triazol-1-yl]methyl]phenyl]pentanamide], 13.9 ± 0.3 nM. For `CC(C)CC(C(=O)NO)C(=O)Nc1ccc(Cn2cc(C3CSCN3C(=O)c3ccc(F)cc3)nn2)cc1` (stereo not drawn) [Hit L4, N-[4-[[4-[3-(4-Fluorobenzoyl)thiazolidin-4-yl]triazol-1-yl]methyl]phenyl]-2-(hydroxycarbamoyl)-4-methyl-pentanamide], the IC50 at LasB came to 6.6 ± 0.2 nM. Still for that read-out and setting: in the case of `CC(=O)Nc1ccccc1OCc1cn(Cc2ccc(NC(=O)C(CC(C)C)C(=O)NO)cc2)nn1` (stereo not drawn) [Hit L5, N-[4-[[4-[(2-Acetamidophenoxy)methyl]triazol-1-yl]methyl]phenyl]-2-(hydroxycarbamoyl)-4-methyl-pentanamide] it was 13.8 ± 0.3 nM.

(Values after US20250170104A1, “INHIBITORS OF PSEUDOMONAS AERUGINOSA VIRULENCE FACTOR Lasß” (priority 2022, published 2025).)
